According to paper PMC9502272, “A Metabolomics Approach for Predicting OATP1B-Type Transporter-Mediated Drug–Drug Interaction Liabilities” (Pharmaceutics, 2022):

What was measured:
OATP1B1 = molecular target: T1, OATP1B1 (Homo sapiens, UniProt Q9Y6L6); experiment: Uptake in HEK293 cells overexpressing OATP1B1; format: cell-based; details: HEK293 cells overexpressing OATP1B1, 5 min uptake, vs empty vector
T1 construct: expressed in transfected cells; host or cells: HEK293 (ATCC)
T1 sequence (Q9Y6L6 1-691): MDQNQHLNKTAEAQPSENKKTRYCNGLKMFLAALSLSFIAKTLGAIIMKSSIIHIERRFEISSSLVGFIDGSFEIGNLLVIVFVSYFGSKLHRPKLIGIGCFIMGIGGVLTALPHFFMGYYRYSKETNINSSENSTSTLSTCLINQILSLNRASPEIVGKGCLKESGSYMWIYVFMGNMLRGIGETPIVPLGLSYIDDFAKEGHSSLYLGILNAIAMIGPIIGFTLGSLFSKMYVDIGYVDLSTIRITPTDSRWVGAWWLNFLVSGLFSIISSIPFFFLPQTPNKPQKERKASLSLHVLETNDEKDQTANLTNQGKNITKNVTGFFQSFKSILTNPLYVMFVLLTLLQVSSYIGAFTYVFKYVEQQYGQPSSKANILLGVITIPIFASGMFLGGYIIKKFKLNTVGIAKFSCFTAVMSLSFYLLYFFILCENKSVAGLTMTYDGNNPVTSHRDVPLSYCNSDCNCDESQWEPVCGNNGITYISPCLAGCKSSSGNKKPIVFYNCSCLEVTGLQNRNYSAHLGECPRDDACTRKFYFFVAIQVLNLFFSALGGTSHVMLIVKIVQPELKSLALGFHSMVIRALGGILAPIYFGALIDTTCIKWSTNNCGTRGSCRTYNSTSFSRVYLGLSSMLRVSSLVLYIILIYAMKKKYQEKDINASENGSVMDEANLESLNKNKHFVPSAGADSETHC
Protocol: (§1) The generation of human embryonic kidney (HEK293) cells (ATCC) engineered to overexpress OATP1B1, Oatp1b2, or empty vector, the cell culture conditions, and general details of uptake studies have been reported in detail elsewhere. Briefly, cells were grown to 90% confluence on poly-lysine coated multi-well plates. […] The pre-treatment medium was rinsed off with warm 1× PBS followed by the addition of the test compounds for an incubation period of 5 min. After incubation, transport was halted by aspirating the medium and rinsing the cells three times with ice-cold 1× PBS. After lysing cells with 0.1 N HCl, and subsequent adding methanol, 20 μL aliquots were mixed with 60 μL of acetonitrile containing relevant internal standards. After vortex mixing, the mixtures were centrifuged, and the supernatants were used for quantitative analysis by LC-MS/MS. Drug uptake results were normalized to total protein content and then to data obtained in cells carrying an empty vector plasmid, which was set to 100%.

human OATP1B3 = experiment: Baseline plasma CDCA-24G in Oatp1a/1b(−/−) mice with transgenic hepatic expression of OATP1B3 (OATP1B3(tg)); format: in vivo; details: range stated jointly for OATP1B1(tg) and OATP1B3(tg)
Protocol: Plasma concentrations of levels of CDCA-24G and glycochenodeoxycholate-3-sulfate (GCDCA-S) were determined using LC-MS/MS using a Vanquish UHPLC coupled with a Quantiva triple quadrupole mass spectrometer (Thermo Fisher Scientific, Waltham, MA, USA). An Accucore aQ column (50 × 2.1 mm, dp = 2.6 μm; Thermo Fisher Scientific) was protected by a C18 AQUASIL guard cartridge (2.1 mm × 10 mm, dp = 3 μm; Thermo Fisher Scientific). The injection volume of sample was 5.0 μL. The temperature of the autosampler rack was 4 °C, and the temperature of the column was maintained at 20 °C. The mobile phase was composed of solvent A (2 mmol ammonium acetate in water) and solvent B (100% methanol), and the total run time was 4.6 min. The gradient conditions were as follows: 0–0.5 min, 45% B; 0.5–2.0 min, 45 to 90%, 2.0–4.0 min, 90% B; 4.0–4.6 min, 45% B, delivered at a flow rate of 0.4 mL/min. […] Precursor molecular ions, and product ions were recorded for the confirmation and detection of GCDCA-S (528.4 > 448.3) and CDCA-24G (567.4 > 391.1), using [^2H5]-GCDCA-S (535.5 > 453.3) and [^2H5]-CDCA-24G (572.5 > 396.1) as respective internal standards. The lower limit of quantitation (LLOQ) for both analytes was determined to be 0.5 ng/mL. […]

Oatp1b2 [1] = molecular target: T2, Oatp1b2 (Mus musculus, UniProt Q9JJL3); experiment: Untargeted metabolomics of plasma from untreated wild-type and Oatp1b2(−/−) mice
T2 sequence (Q9JJL3 1-689): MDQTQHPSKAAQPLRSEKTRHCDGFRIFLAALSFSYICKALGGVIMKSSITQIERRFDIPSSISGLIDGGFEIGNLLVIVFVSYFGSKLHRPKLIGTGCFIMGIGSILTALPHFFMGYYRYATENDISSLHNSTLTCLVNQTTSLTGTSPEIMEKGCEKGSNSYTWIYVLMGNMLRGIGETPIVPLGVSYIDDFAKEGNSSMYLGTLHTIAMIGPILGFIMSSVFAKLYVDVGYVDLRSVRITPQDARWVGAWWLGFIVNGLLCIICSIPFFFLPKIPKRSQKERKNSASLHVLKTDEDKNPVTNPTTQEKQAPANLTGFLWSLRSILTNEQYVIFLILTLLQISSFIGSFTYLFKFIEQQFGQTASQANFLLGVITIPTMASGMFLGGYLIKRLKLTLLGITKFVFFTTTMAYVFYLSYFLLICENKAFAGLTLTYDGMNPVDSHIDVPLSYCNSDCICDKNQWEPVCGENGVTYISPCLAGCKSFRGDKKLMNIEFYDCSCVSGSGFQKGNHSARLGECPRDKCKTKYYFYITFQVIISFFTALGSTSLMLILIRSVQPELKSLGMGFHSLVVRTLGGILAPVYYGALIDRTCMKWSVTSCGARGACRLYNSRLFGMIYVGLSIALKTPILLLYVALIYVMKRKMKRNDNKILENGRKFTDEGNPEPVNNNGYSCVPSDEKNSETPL

Oatp1b2 [2] = molecular target: T2, Oatp1b2; experiment: Uptake in HEK293 cells overexpressing Oatp1b2; format: cell-based; parameters: from tissue; hepatic transporter in vivo; details: HEK293 cells overexpressing Oatp1b2, 5 min uptake, vs empty vector
Protocol: as §1

## C[C@H](CCC(=O)O[C@@H]1O[C@H](C(=O)O)[C@@H](O)[C@H](O)[C@H]1O)[C@H]1CC[C@H]2[C@@H]3[C@H](O)C[C@@H]4C[C@H](O)CC[C@]4(C)[C@H]3CC[C@]12C [CDCA-24G, chenodeoxycholate-24-glucuronide]
OATP1B1
  Transport by human OATP1B-type transporter: efficiently transported
Human OATP1B3
  Baseline CDCA-24G level, fold lower than in Oatp1a/1b(−/−) mice: 5- to 7 fold
Oatp1b2 [1]; based on semi-quantitative analysis
  Increase of plasma level in Oatp1b2(−/−) mice vs. wild-type mice: ≈ 98 fold
Oatp1b2 [1]; plasma of untreated Oatp1b2-deficient (KO) vs wild-type (WT) mice, semi-quantitative, positive = higher in KO, n = 6 per group
  Fold of Change KO/WT: 97.9
Oatp1b2 [1]; plasma of untreated Oatp1b2-deficient mice, raw area counts rescaled to median = 1
  Mean value KO: 1.15
Oatp1b2 [1]; plasma of untreated wild-type mice, raw area counts rescaled to median = 1
  Mean value WT: .0120
Oatp1b2 [2]
  Transport by murine OATP1B-type transporter: efficiently transported
